Experimental data: paper PMC12811996, “Exploration and Characterization of the Antimalarial Activity of Pyrimidine‐2,4‐Diamines for which Resistance is Mediated by the ABCI3 Transporter” (Chemmedchem, 2025)
≈ marks a conversion by molar mass, not a printed value. Like-named read-outs stand apart in the source and are kept apart here.

What was measured:
physchem [1] = type: physicochemical; conditions: kinetic in PBS, pH 7.4
Method: (§1) The aqueous solubility and in vitro metabolic stability of selected analogs were assessed to determine if they had favorable parameters (Table 9 ).These analogs were selected based on their potency and the modifications that were incorporated, which led to compounds 55 and 56. […] The high lipophilicity of analogs 1, 11, and 16 was not favorable for metabolic stability.
(§2) This was performed as previously described.^[ [14] ^, [16] ^]

in vitro = in vitro ADME; conditions: for microsomal CLint: human, microsomes, human liver microsomes; for hepatocyte CLint: rat hepatocytes
Method: as §1, §2

physchem [2] = type: physicochemical; conditions: shake-flask method; for logD: read-out: eLogD
Method: as §2

Albumax = Albumax (Bos taurus, UniProt P02769); test: in vitro; type: in vitro ADME; conditions: for fraction unbound: bovine, isolated protein, read-out: Albumax binding % bound (converted)
[3] = system: P. falciparum 3D7 parasites; test: P. falciparum 3D7 asexual stage parasite LDH assay, 72 h; type: cell-based, Plasmodium falciparum; conditions: for fold reduction in antiplasmodial activity compared to W482 (1): ratio of 3D7 EC50 values; for EC50: Plasmodium falciparum, 3D7, 72 h, P. falciparum 3D7, LDH activity, 72 h exposure, means and SDs, 3 or more experiments, read-out: Pf parasite EC50 (SD)
Method: To establish the SAR, the antiparasitic activity of the analogs was determined using an assay that measures the lactate dehydrogenase (LDH) activity of asexual P. falciparum 3D7 parasites after 72 h of compound treatment. Mammalian cytotoxicity was monitored using an assay that measures the growth of HepG2 cells using Cell Titer‐Glo after 48 h of compound treatment.
This was performed as previously described, whereby lactate dehydrogenase (LDH) was used as a metabolic marker for parasite growth after a 72‐h incubation period.^[ [14] ^, [30] ^]

[4] = system: Plasmodium falciparum strain 3D7A; test: Parasite reduction ratio assay; type: cell-based; conditions: 10 × EC50, 24 and 48 h treatment, P. falciparum 3D7
Description: Figure 5 a) Stage of arrest assay showing that W482 (1) blocks ring‐trophozoite transition in the asexual stage of P. falciparum. […] Replicates of Giemsa‐stained blood smears can be found in Figure S4 (Supporting Information). c) Parasite reduction ratio assay conducted at 10 × EC50 of W482 (1). Data represent means and SD of P. falciparum 3D7 parasite survival measuring 3 independent replicates by two‐color flow cytometry using CFDA‐SE and Hoescht 33,342 staining.
Samples of parasites were collected at 24‐ and 48‐hour timepoints, whereby the compound was washed out and fresh erythrocytes pre‐labeled with intracellular dye were added. Samples were then incubated for 18 days, and then the number of viable parasites was quantified by flow cytometry (Figure 5c).
This assay was conducted following a previously described protocol using the Plasmodium falciparum strain 3D7A, MRA‐151.^[ [19] ^, [28] ^] The human biological samples used in the study were sourced ethically, and their research use was conducted in accordance with the terms of informed consent under an IRB/EC‐approved protocol.

PfABCI3-HAreg parasites = test: Parasite proliferation assay with PfABCI3-HAreg parasites (SYBR Safe, 72 h); type: cell-based, Plasmodium falciparum; conditions: mean ± SEM, n = 4; for IC50: Plasmodium falciparum, 72 h
Method: Glucosamine (GlcN) (5 mM) was used to reduce the level of pfabci3‐ha. Chloroquine and MMV020746 were used as negative and positive controls, respectively.
Figure 4 Sensitivity of PfABCI3‐HAreg parasites to growth inhibition by chloroquine (a), MMV020746 (b), and W482 (1) (c). Data for parasites in which pfabci3‐ha mRNA was reduced (+ GlcN) are shown in red. GlcN (5 mM) was added to the parasites 48 h prior to the assay and maintained throughout the 72 h assay. The data for parasites expressing a normal level of PfABCI3‐HA (‐GlcN) are shown in black. The data in all panels are from four independent experiments performed on different days. […] Parasites that were treated with or without GlcN (5 mM) were tested concurrently in each assay. TEXT PRINTED IN THE PICTURE: chloroquine: IC50 ± SEM (nM) - GlcN: 12.6 ± 1.1; IC50 ± SEM (nM) + GlcN: 11.9 ± 1.5 | MMV020746: IC50 ± SEM (nM) - GlcN: 104 ± 13; IC50 ± SEM (nM) + GlcN: 32.9 ± 3.9 | W482 (1): IC50 ± SEM (nM) - GlcN: 312 ± 28; IC50 ± SEM (nM) + GlcN: 153 ± 12
Parasite proliferation assays were performed with PfABCI3‐HAreg parasites^[ [19] ^] according to a previously described method, with the fluorescent nucleic acid intercalating dye SYBR Safe used to measure parasite viability.^[ [32] ^, [33] ^] The assays were commenced with cultures consisting of predominantly ring‐stage parasites with a starting hematocrit of 1% and parasitemia of 1%. […] It was shown previously that there is a reduction in pfabci3‐ha mRNA in PfABCI3‐HAreg exposed to 5 mM GlcN and a decrease in parasite viability over time.^[ [19] ^] The level of knockdown of the protein is not known.

[5] = read-out: Aqueous solubility pH 7.4
[6] = aqueous buffer, kinetic from dmso stock

Chain of Albumax (P02769 25-607): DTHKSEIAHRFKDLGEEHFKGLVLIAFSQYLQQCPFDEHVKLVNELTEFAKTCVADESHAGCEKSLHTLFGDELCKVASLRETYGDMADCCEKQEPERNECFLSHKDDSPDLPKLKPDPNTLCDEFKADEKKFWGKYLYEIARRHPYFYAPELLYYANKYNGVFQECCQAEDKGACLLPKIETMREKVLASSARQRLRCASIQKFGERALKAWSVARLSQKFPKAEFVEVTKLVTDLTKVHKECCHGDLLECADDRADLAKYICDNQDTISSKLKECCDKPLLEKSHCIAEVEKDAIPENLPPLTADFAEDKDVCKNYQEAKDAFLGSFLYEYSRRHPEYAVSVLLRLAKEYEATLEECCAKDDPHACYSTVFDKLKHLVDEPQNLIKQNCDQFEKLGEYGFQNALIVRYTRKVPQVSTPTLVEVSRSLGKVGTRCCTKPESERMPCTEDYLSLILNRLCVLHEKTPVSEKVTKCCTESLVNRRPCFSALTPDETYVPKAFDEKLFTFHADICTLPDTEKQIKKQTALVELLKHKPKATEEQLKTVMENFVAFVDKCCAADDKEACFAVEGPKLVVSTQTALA

Compound | EC50 [3] | also measured
3‐Cyclohexyl‐N‐(4‐((4‐(dimethylamino)quinazolin‐2‐yl)amino)phenyl)propenamide [Compound 16] |  | solubility (physchem [1]; [5]): 2.5 µM; Human liver microsomes CLint (in vitro): 166 µL/min/mg; Rat hepatocytes CLint (in vitro): >92 µL/min/10^6 cells; eLogD (physchem [2]): 4.6–5.0; Albumax binding % bound (Albumax): 96.6%
3‐Cyclohexyl‐N‐(4‐((4‐methyl‐6‐(4‐methylpiperazin‐1‐yl)pyrimidin‐2‐yl)amino)phenyl)propenamide [Compound 11] |  | solubility (physchem [1]; [5]): 2.6 µM; Rat hepatocytes CLint (in vitro): >92 µL/min/10^6 cells; eLogD (physchem [2]): 4.6–5.0; Albumax binding % bound (Albumax): 99.9%
3‐Cyclohexyl‐N‐(4‐((4‐methyl‐6‐morpholinopyrimidin‐2‐yl)amino)phenyl)propenamide [Compound 9] |  | fold reduction in antiplasmodial activity compared to W482 (1) [3]: 4 fold
3‐Cyclohexyl‐N‐(6‐((4‐(dimethylamino)‐6‐methylpyrimidin‐2‐yl)amino)pyridin‐3‐yl)propenamide [Compound 25] |  | fold reduction in antiplasmodial activity compared to W482 (1) [3]: 8 fold
Cc1cc(N(C)Cc2ccccc2)nc(Nc2ccc(NC(=O)CCC3CCCCC3)cc2)n1 [Compound 6, N‐(4‐((4‐(Benzyl(methyl)amino)‐6‐methylpyrimidin‐2‐yl)amino)phenyl)‐3‐cyclohexylpropanamide] | 600 nM | 
Cc1cc(Nc2ccc(NC(=O)CCC3CCCCC3)cc2)nc(N(C)C)c1 [Compound 19, 3‐Cyclohexyl‐N‐(4‐((6‐(dimethylamino)‐4‐methylpyridin‐2‐yl)amino)phenyl)propanamide] | 610 nM | 
Cc1cc(N(C)C)cc(Nc2ccc(NC(=O)CCC3CCCCC3)cc2)n1 [Compound 20, 3‐Cyclohexyl‐N‐(4‐((4‐(dimethylamino)‐6‐methylpyridin‐2‐yl)amino)phenyl)propanamide] | 880 nM | 
CN(C)c1nc(Nc2ccc(NC(=O)CCC3CCCCC3)cc2)cc2ccccc12 [Compound 21, 3‐Cyclohexyl‐N‐(4‐((1‐(dimethylamino)isoquinolin‐3‐yl)amino)phenyl)propanamide] | > 10000 nM | 
Cc1cc(N(C)C)nc(Nc2ccc(NC(=O)c3cccs3)cc2)n1 [Compound 27] | 1440 nM | 
Cc1cc(N(C)C)nc(Nc2ccc(NC(=O)c3ccco3)cc2)n1 [Compound 28] | 3900 nM | 
Cc1cc(N(C)C)nc(Nc2ccc(NC(=O)c3ccc4ccccc4c3)cc2)n1 [Compound 29] | 360 nM | 
Cc1cc(N(C)C)nc(Nc2ccc(NC(=O)C(C)C)cc2)n1 [Compound 30] | 3760 nM | 
Cc1cc(N(C)C)nc(Nc2ccc(NC(=O)C(C)(C)C)cc2)n1 [Compound 31] | 3360 nM | 
Cc1cc(N(C)C)nc(Nc2ccc(NC(=O)CC(C)C)cc2)n1 [Compound 32] | 1630 nM | 
Cc1cc(N(C)C)nc(Nc2ccc(NC(=O)C3CCCCC3)cc2)n1 [Compound 33] | 930 nM | 
Cc1cc(N(C)C)nc(Nc2ccc(NC(=O)CCC3CCCC3)cc2)n1 [Compound 34] | 1000 nM | fold reduction in antiplasmodial activity compared to W482 (1) [3]: 2 fold
Cc1cc(N(C)C)nc(Nc2ccc(NC(=O)c3ccccc3Cl)cc2)n1 [Compound 35] | 2120 nM | 
Cc1cc(N(C)C)nc(Nc2ccc(NC(=O)c3ccccc3Br)cc2)n1 [Compound 36] | 1850 nM | 
Cc1cc(N(C)C)nc(Nc2ccc(NC(=O)c3ccccc3C(F)(F)F)cc2)n1 [Compound 37] | 850 nM | fold reduction in antiplasmodial activity compared to W482 (1) [3]: 2 fold
Cc1cc(N(C)C)nc(Nc2ccc(NC(=O)c3cccc(F)c3)cc2)n1 [Compound 38] | 780 nM | fold reduction in antiplasmodial activity compared to W482 (1) [3]: 2 fold

Compound | EC50 [3] | also measured
Cc1cc(N(C)C)nc(Nc2ccc(NC(=O)c3cccc(Br)c3)cc2)n1 [Compound 39] | 450 nM | 
Cc1cccc(C(=O)Nc2ccc(Nc3nc(C)cc(N(C)C)n3)cc2)c1 [Compound 40] | 1080 nM | fold reduction in antiplasmodial activity compared to W482 (1) [3]: 2 fold
Cc1cc(C)cc(C(=O)Nc2ccc(Nc3nc(C)cc(N(C)C)n3)cc2)c1 [Compound 41] | 590 nM | 
Cc1cc(N(C)C)nc(Nc2ccc(NC(=O)c3ccc(C)c(C)c3)cc2)n1 [Compound 42] | 660 nM | 
COc1cc(OC)cc(C(=O)Nc2ccc(Nc3nc(C)cc(N(C)C)n3)cc2)c1 [Compound 43] | 640 nM | 
COc1ccc(Cl)cc1C(=O)Nc1ccc(Nc2nc(C)cc(N(C)C)n2)cc1 [Compound 44] | 490 nM | 
Cc1cc(N(C)C)nc(Nc2ccc(NC(=O)Nc3ccccc3F)cc2)n1 [Compound 45] | 3420 nM | 
Cc1cc(N(C)C)nc(Nc2ccc(NC(=O)Nc3ccccc3Cl)cc2)n1 [Compound 46] | > 10000 nM | 
Cc1cc(N(C)C)nc(Nc2ccc(NC(=O)Nc3ccccc3C)cc2)n1 [Compound 47] | 410 nM | 
COc1ccccc1NC(=O)Nc1ccc(Nc2nc(C)cc(N(C)C)n2)cc1 [Compound 48] | 380 nM | 
Cc1cc(N(C)C)nc(Nc2ccc(NC(=O)Nc3cccc(Cl)c3)cc2)n1 [Compound 49] | 240 nM | 
Cc1cccc(NC(=O)Nc2ccc(Nc3nc(C)cc(N(C)C)n3)cc2)c1 [Compound 50] | 240 nM | 
Cc1cc(N(C)C)nc(Nc2ccc(NC(=O)Nc3ccc(F)cc3)cc2)n1 [Compound 51] | 300 nM | solubility (physchem [1]; [6]): 3.7 µM (≈ 1.41 µg/mL); microsomal CLint (in vitro): 26 µL/min/mg; hepatocyte CLint (in vitro): 32 µL/min/1e6 cells; logD (physchem [2]): 3; fraction unbound (Albumax): 0.016
Cc1cc(N(C)C)nc(Nc2ccc(NC(=O)Nc3ccc(Cl)cc3)cc2)n1 [Compound 52] | 340 nM | 
Cc1ccc(NC(=O)Nc2ccc(Nc3nc(C)cc(N(C)C)n3)cc2)cc1 [Compound 53] | 440 nM | 
COc1ccc(NC(=O)Nc2ccc(Nc3nc(C)cc(N(C)C)n3)cc2)cc1 [Compound 54] | 400 nM | 
O=C(CCC1CCCCC1)Nc1ccc(Nc2nc(N3CCNCC3)c3ccccc3n2)cc1 [Compound 55, 3‐Cyclohexyl‐N‐(4‐((4‐(piperazin‐1‐yl)quinazolin‐2‐yl)amino)phenyl)propanamide] | 230 nM | solubility (physchem [1]; [6]): 2.5 µM (≈ 1.15 µg/mL); Human liver microsomes CLint (in vitro): 117 µL/min/mg; microsomal CLint (in vitro): > 117 µL/min/mg; hepatocyte CLint (in vitro): 27 µL/min/1e6 cells; logD (physchem [2]): 3.2; fraction unbound (Albumax): 0.002
O=C(Nc1ccc(F)cc1)Nc1ccc(Nc2nc(N3CCNCC3)c3ccccc3n2)cc1 [Compound 56, 1‐(4‐Fluorophenyl)‐3‐(4‐((4‐(piperazin‐1‐yl)quinazolin‐2‐yl)amino)phenyl)urea] | 180 nM | solubility (physchem [1]; [6]): 9.6 µM (≈ 4.39 µg/mL); hepatocyte CLint (in vitro): 21 µL/min/1e6 cells; logD (physchem [2]): 2.2; fraction unbound (Albumax): 0.001
CCc1nc(N)nc(N)c1-c1ccc(Cl)cc1 [Pyrimethamine, reference compound] |  | asexual speed-of-kill profile [4]: moderate killing rate
CCN(CC)CCCC(C)Nc1ccnc2cc(Cl)ccc12 (centres unmarked) [chloroquine, reference compound] |  | IC50 (PfABCI3-HAreg parasites; PfABCI3-HAreg parasites expressing normal level of PfABCI3-HA (-GlcN)): 12.6 ± 1.1 nM; IC50 (PfABCI3-HAreg parasites; PfABCI3-HAreg parasites with reduced pfabci3-ha mRNA (+ 5 mM GlcN)): 11.9 ± 1.5 nM; fold lower IC50 for +GlcN parasites than -GlcN parasites (PfABCI3-HAreg parasites): equally potent
